Test results taken from US8481738B2, “Gonadotropin-releasing hormone receptor antagonists and methods relating thereto” (Neurocrine Biosciences, Inc., priority 2007, dated 2013).

target: T1, human GnRH receptor (Homo sapiens, UniProt P30968); experiment: Peptide competition radioligand binding displacement assay, human GnRH receptor membranes; conditions: one or more of the peptide competition human receptor binding assays
T1 construct: expressed in transfected cells; host or cells: RBL cells, stably transfected (in general)
T1 sequence (P30968 1-328): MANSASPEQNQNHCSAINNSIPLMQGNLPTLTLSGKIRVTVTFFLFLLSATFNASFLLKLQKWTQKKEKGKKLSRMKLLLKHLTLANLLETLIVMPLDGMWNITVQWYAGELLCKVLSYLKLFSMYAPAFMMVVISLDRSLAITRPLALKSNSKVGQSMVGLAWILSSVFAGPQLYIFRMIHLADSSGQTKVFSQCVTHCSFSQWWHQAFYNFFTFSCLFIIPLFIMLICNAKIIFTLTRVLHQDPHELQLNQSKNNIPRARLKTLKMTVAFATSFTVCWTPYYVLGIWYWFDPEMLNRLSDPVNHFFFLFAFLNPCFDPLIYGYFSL
Procedure: cDNA's of human, rhesus macaque, rabbit, dog and rat GnRH receptors are cloned into pcDNA3.1 (+) (Invitrogen). Full length sequences of all receptors are confirmed by DNA sequencing. HEK 293, CHO, COS-7, or rat basophilic leukemia (RBL) cells are stably transfected with human, rat, or macaque GnRH receptors and high expressing single cell clones (Bmax≧0.4 pMol/mg membrane protein) are isolated and maintained in Dulbecco's Modified Eagles Medium (DMEM) with following supplements: 10 mM HEPES; 2 mM L-glutamine; 1 mM Sodium Pyruvate; 50 U/mL penicillin, 50 μg/mL streptomycin; 10% Heat-inactivated Fetal Bovine Serum and 200 μg/mL Geneticin (G-418-Sulfate). Non-essential amino acids (0.1 mM) (Irvine Scientific; Santa Ana, Calif.) are included in the RBL cell media.
In general, initial peptide radioligand binding assays are carried out using membranes from stably transfected RBL cells. RBL stable clones are found to more consistently express high levels of GnRH receptor and are therefore used for subsequent binding studies as well as Ca^++ flux and inositol phosphate accumulation assays. Transiently transfected COS-7 cells are used for preparation of membranes containing GnRH receptors from multiple species (as well as those of mutant receptors for other studies) because of the convenience for rapidly analyzing multiple receptors.
HEK293 cells stably transfected with the human GnRH receptor are grown for two days after achieving confluence then are harvested by striking tissue culture flasks against a firm surface. Cells are collected by centrifugation at 1000 g for 5 minutes. Cell pellets are resuspended in 5% sucrose and homogenized using a polytron homogenizer for two 15 second homogenization steps. Cell homogenates are then centrifuged for 5 minutes at 3000 g to remove nuclei and the supernatant subsequently centrifuged for 30 minutes at 44,000 g to collect the membrane fraction. The membrane pellet is resuspended in GnRH binding buffer (10 mM HEPES, pH 7.5, 150 mM NaCl and 0.1% BSA) and aliquots immediately snap-frozen in liquid nitrogen and stored at −80° C. Protein content of the membrane suspension is determined using the Bio-Rad protein assay kit (Bio-Rad).
RBL cells stably transfected with the human GnRH receptor are grown to 80% confluency prior to harvesting. The cells are incubated at 37° C. for 10 min in 0.5 mM EDTA/PBS (Ca^++, Mg^++ free), and are dislodged from the plate by gentle rapping of the flasks. Cells are collected and pelleted by centrifugation at 1000 g for 5 minutes. Cell pellets are resuspended in buffer (DPBS supplemented with 10 mM MgCl2, 2 mM EGTA, pH=7.4), and cell lysis is performed using a pressure cell and applying N2 at a pressure of 900 psi for 30 min at 4° C. Unbroken cells and larger debris were removed by centrifugation at 1200 g for 10 min at 4° C. The cell membrane supernatant is then centrifuged at 45,000 g and the resulting membrane pellet is resuspended in assay buffer and homogenized on ice using a tissue homogenizer. Protein concentrations are determined using the Coomassie Plus Protein Reagent kit. Membranes are aliquoted and stored at −80° C. until ready for use.
COS-7 cells transiently transfected with GnRH receptors from different species (human, macaque, dog, rabbit, rat) or mutant GnRH receptors are prepared by bulk electroporation. COS-7 cells are obtained from American Type Cell Culture (Manassas, Va.) and are maintained in Dulbeccos's modified Eagle's medium (DMEM) (MediaTech Inc., Herndon, Va.) containing 10% fetal bovine serum, 10 mM HEPES, 2 mM L-glutamine, 1 mM sodium pyruvate, 50 U/mL penicillin, 50 μg/mL streptomycin. COS-7 cells are seeded in 500 cm^2 tissue culture plates and grown to confluency prior to cell transfection. […]

Ki, ≤ 100 nM:
COC(=O)CCCOc1ccccc1N(C)C(=O)c1ccc(Cl)c(-c2cnc(Cl)cc2C)c1 [3-2]
COC(=O)c1ccccc1N(C)C(=O)c1ccc(Cl)c(-c2ncc(Cl)cc2C)c1 [2-72]
COc1cc(Cl)c(-c2cnc(C(F)(F)F)cc2C#N)cc1C(=O)N(C)Cc1ccccc1F [39-16]
Cc1cc(Cl)c(-c2cc(C(=O)N(C)c3cccc(C(F)(F)F)c3C)ccc2Cl)cn1 [2-24]
COc1cc(Cl)c(-c2cnc(C(F)(F)F)cc2C#N)cc1C(=O)N(C)Cc1ccccc1 [39-15]
COc1ccccc1N(C)C(=O)c1ccc(Cl)c(-n2c(C)cc(C(F)(F)F)nc2=O)c1 [30-15]
COc1ccccc1N(C)C(=O)c1ccc(Cl)c(-c2nc3ccccc3cc2C#N)c1 [2-49]
Cc1cccc(OCCCO)c1N(C)C(=O)c1ccc(Cl)c(-c2ccc(C(F)(F)F)cc2C#N)c1 [10-1, 4-Chloro-3-(2-cyano-4-trifluoromethyl-phenyl)-N-[2-(3-hydroxy-propoxy)-6-methyl-phenyl]-N-methyl-benzamide]
COc1ccccc1N(C)C(=O)c1cc(-c2cnc(C(F)(F)F)cc2C#N)c(Cl)cc1OCCN(C)C(=O)C(F)(F)F [47-5]
Cc1cccc(C)c1N(C)C(=O)c1cc(-c2cnc(C(F)(F)F)cc2C#N)c(Cl)cc1OCCCCO [21-4]
Cc1cnc(-c2cc(C(=O)N(C)c3cccc(C)c3C)ccc2Cl)c(Cl)c1 [2-67]
Cc1cc(Cl)cnc1-c1cc(C(=O)N(C)c2c(C)cccc2C)ccc1Cl [2-63]
Cc1cc(C#N)ncc1-c1cc(C(=O)N(C)c2cccc(F)c2OCCCC(=O)O)ccc1Cl [4-9]
COc1cc(Cl)c(-c2cnc(C(F)(F)F)cc2C#N)cc1C(=O)N(C)c1ccccc1OCC(F)(F)F [39-9]
COc1ccccc1N(C)C(=O)c1cc(-c2cnc(C(F)(F)F)cc2C#N)c(Cl)cc1OCCN(C)C(C)=O [47-2]
Cc1ccccc1N(C)C(=O)c1ccc(Cl)c(-c2ccc(Cl)nc2)c1 [2-15]
CN(C(=O)c1ccc(Cl)c(-c2cnc(C(F)(F)F)cc2C#N)c1)c1ccccc1OCCN1CCC[C@H]1C(=O)O [50-3]
COc1cccc(C)c1N(C)C(=O)c1cc(-c2cnc(C(F)(F)F)cc2C#N)c(Cl)cc1OCCCCO [21-1, 4-Chloro-5-(4-cyano-6-trifluoromethyl-pyridin-3-yl)-2-(4-hydroxy-butoxy)-N-(2-methoxy-6-methyl-phenyl)-N-methyl-benzamide]
COc1ccccc1N(C)C(=O)c1cc(-c2cnc(C(F)(F)F)cc2C#N)c(Cl)cc1OCCN1CCC[C@@H]1C(=O)O [49-2]
COc1ccccc1N(C)C(=O)c1ccc(Cl)c(-c2cnc(C(F)(F)F)cc2C#N)c1 [2-14]
Cc1cc(C(F)(F)F)ncc1-c1cc(C(=O)N(C)c2ccccc2OCCC(=O)O)ccc1Cl [11-3]
COc1ccccc1CCOc1cc(Cl)c(-c2cnc(C(F)(F)F)cc2C#N)cc1C(=O)N(C)c1ccccc1OC [46-2]
COc1cc(Cl)c(-c2cnc(C(F)(F)F)cc2C#N)cc1C(=O)N(C)c1ncccc1OC [39-13]
COc1ccccc1N(C)C(=O)c1ccc(Cl)c(-c2ccc(C(F)(F)F)cc2C#N)c1 [2-53]
COC(=O)COc1ccccc1N(C)C(=O)c1ccc(Cl)c(-c2cnc(C)cc2Cl)c1 [3-4]
COc1cc(Cl)c(-c2cnc(C(F)(F)F)cc2C#N)cc1C(=O)N(C)c1ccccc1 [39-7]
COc1cccc(CN(C)C(=O)c2cc(-c3cnc(C(F)(F)F)cc3C#N)c(Cl)cc2OC)c1 [39-18]
COc1c(Cl)cccc1N(C)C(=O)c1cc(-c2cnc(C(F)(F)F)cc2C#N)c(Cl)cc1OCCCC(=O)O [34-6]
COc1cccc(C)c1N(C)C(=O)c1cc(-c2nc3ccccc3cc2C#N)c(Cl)cc1OCCCC(=O)O [22-3]
Cc1cc(C#N)ncc1-c1cc(C(=O)N(C)c2ccccc2OCCC(=O)O)ccc1Cl [11-1, 3-(2-{[4-Chloro-3-(6-cyano-4-methyl-pyridin-3-yl)-benzoyl]-methyl-amino}-phenoxy)-propionic acid]
COc1ccccc1N(C)C(=O)c1cc(-c2cnc(C(F)(F)F)cc2C#N)c(Cl)cc1OCCCc1cnoc1 [46-1, 4-Chloro-5-(4-cyano-6-trifluoromethyl-pyridin-3-yl)-2-(3-isoxazol-4-yl-propoxy)-N-(2-methoxyphenyl)-N-methyl-benzamide]
COc1ccccc1N(C)C(=O)c1cc(-c2cnc(C(F)(F)F)cc2C#N)c(Cl)cc1OCCCn1cccn1 [42-12]
Cc1cc(C(F)(F)F)nc(=O)n1-c1cc(C(=O)N(C)c2cccc(F)c2F)ccc1Cl [30-13]
COc1ccccc1N(C)C(=O)c1cc(-c2cnc(C(F)(F)F)cc2C#N)c(Cl)cc1OCCCC(=O)OCOC(=O)C(C)(C)C [36-2, 4-{5-chloro-4-(4-cyano-6-trifluoromethyl-pyridin-3-yl)-2-[(2-methoxy-phenyl)-methyl-carbamoyl]-phenoxy}-butyric acid 2,2-dimethyl-propionyloxymethyl ester]
COc1cccc(C)c1N(C)C(=O)c1cc(-c2cnc(C(F)(F)F)cc2C#N)c(Cl)cc1OCCCO [21-8]
COc1cccc(C)c1N(C)C(=O)c1cc(-c2cnc(C#N)cc2C)c(Cl)cc1OCCCC(=O)O [22-2]
Cc1cc(Cl)c(-c2cc(C(=O)N(C)c3cccc(C)c3C)ccc2Cl)c(C)n1 [2-21]
COc1cccc(C)c1N(C)C(=O)c1ccc(Cl)c(-c2ncc(Cl)cc2Cl)c1 [2-69]
Cc1ccccc1N(C)C(=O)c1cc(-c2cnc(C(F)(F)F)cc2C#N)c(Cl)cc1OCCCC(=O)O [20-1, 4-[5-Chloro-4-(4-cyano-6-trifluoromethyl-pyridin-3-yl)-2-(methyl-o-tolyl-carbamoyl)-phenoxy]-butyric acid]
Cc1cc(C#N)ncc1-c1cc(C(=O)N(C)c2c(C)cccc2OCCCC(=O)O)ccc1Cl [4-8]
COC(=O)CCCc1ccccc1N(C)C(=O)c1ccc(Cl)c(-c2cnc(C(F)(F)F)cc2C#N)c1 [13-3]
COc1ccccc1N(C)C(=O)c1ccc(Cl)c(-c2nc3ccccc3cc2C)c1 [2-79]
Cc1cc(Cl)ncc1-c1cc(C(=O)N(C)c2ccccc2OCCC(=O)O)ccc1Cl [11-2]
COc1ccccc1N(C)C(=O)c1cc(-c2cnc(C(F)(F)F)cc2C#N)c(Cl)cc1OCCCc1ccccn1 [42-6]
COc1cccc(C)c1N(C)C(=O)c1ccc(Cl)c(-c2cnc(Cl)cc2Cl)c1 [2-29]
